Source: article PMC10630452, “The tumor-enriched small molecule gambogic amide suppresses glioma by targeting WDR1-dependent cytoskeleton remodeling” (Signal Transduction and Targeted Therapy, 2023)

What was measured:
[1] = target: T1, His-WD2-7 (WD2 to WD7 repeats of WDR1) (Homo sapiens, UniProt O75083); assay: SPR analysis (Biacore 8 K); assay type: binding; settings: immobilized His-WD2-7, 25 °C, 5% DMSO
T1 construct: His; made in house; host or cells: Arctic-Express (E. coli)
Description: The binding affinities of GA-amide for its target proteins GST-WDR1, GST, and His-WD2-7 were assayed by using the SPR-based Biacore 8 K instrument (GE Healthcare). The CM5 sensor chip was used to immobilize 15,000 RU of the target protein to the sensor surface by the standard amine coupling reaction at 25 °C in PBS running buffer. Gradient concentrations of GA-amide containing 5% DMSO were injected into the channels to evaluate the binding affinity. The dissociation constants (KD values) of the GA-amide–protein complexes were calculated with Biacore 8 K Evaluation Software.
The pGEX4T-1 plasmid was used to express the GST-WDR1 and GST proteins, while the pET-28c plasmid was used to express the His-WD2-7 protein. Arctic-ExpressTM was used for the production of the GST-WDR1, GST and His-WD2-7 fusion proteins. The cultures were grown at 37 °C, and when the OD600 reached 0.5–0.8, the protein was expressed after 0.5 mM IPTG was added. After 4 h, the cells were collected and washed with cold PBS twice.
For His-WD2-7 protein purification, cells were first lysed by sonication. WD2-7 was present the precipitate and solubilized as described above. Then, the protein was loaded onto a Balanced Ni-IDA-Sepharose Cl-6B column (Novagen) and washed with Ni-IDA Washing-Buffer (20 mM Tris-HCl, 20 mM imidazole, 0.15 M NaCl, pH 8.0). […]

[2] = system: GSC2 subcutaneous xenograft; assay: GSC2-derived subcutaneous xenograft model; assay type: in vivo, nude mice; settings: 2 mg/kg i.p. once daily for 11 days
Description: (§1) Fig. 3 The inhibitory effects of GA-amide in glioma stem cell-derived mouse models and transgenic mouse models. a, b GSC2 cells were implanted s.c. into nude mice. Mice were treated with control (DMSO) (n = 7) or GA-amide (2 mg/kg) (n = 8) via i.p. injection once daily for 11 days, after which a photograph (a) was taken to show the tumor volume, and the tumor volume was calculated by a modified ellipsoid formula in (b). c, d GSC2 cells were implanted intracranially into nude mice. Mice were injected i.v. with control (n = 8) or 1 mg/kg GA-amide (n = 8) daily for 13 days, the Mantel‒Cox log–rank test was used for analysis, and the relative survival curves are shown in (c). The body weights are shown in (d). e In vivo efficacy studies of GA-amide using transgenic mouse models. Glioma was induced in transgenic C57BL/6 mice by injection of pTomo-Ras-sip53 lentivirus, and the strategy is shown. f, g MRI analysis was used to group mice into the control (n = 7) and GA-amide-treated groups (n = 8) before treatment. The statistical results are shown in (f), and representative MRI images are shown in (g). […]

infarct = settings: subcutaneous injection of 2 mg/kg; cited from earlier work
[3] = system: WDR1 deficient U87MG-SLC cells; assay: sgWDR1 U87MG-SLC subcutaneous xenograft; assay type: in vivo, nude mice; settings: 2 mg/kg i.p. once daily for 10 days
hippocampal neurons = settings: cited from earlier work
[4] = Acute toxicity assay, mice serum biochemical indexes; assay type: in vivo
[5] = system: GSC2 intracranial xenograft; assay: GSC2-derived intracranial xenograft model; assay type: in vivo, nude mice; settings: 1 mg/kg i.v. daily for 13 days
Description: as §1, with “treatment.” for “treatment. The statistical results are shown in (f), and representative MRI images are shown in (g).”
For the intracranial xenograft mouse models, 1 × 10^5 GSC2 or U87MG-SLC cells were injected into the frontal cortex (1 mm rostral to the bregma, 2 mm lateral to the midline, and 3 mm deep) using a microsyringe (Hamilton). […] The tumor size was measured by MRI, and survival analysis was performed in a blinded manner.

T1 sequence (O75083 48-306 limits assumed): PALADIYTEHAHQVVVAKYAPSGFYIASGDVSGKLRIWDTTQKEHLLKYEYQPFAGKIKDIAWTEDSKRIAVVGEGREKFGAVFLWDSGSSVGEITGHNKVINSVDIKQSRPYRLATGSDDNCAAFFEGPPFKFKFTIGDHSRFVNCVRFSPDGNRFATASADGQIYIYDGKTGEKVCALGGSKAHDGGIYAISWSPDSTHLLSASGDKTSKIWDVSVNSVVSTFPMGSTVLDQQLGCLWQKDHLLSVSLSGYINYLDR

CC(C)=CCC[C@]1(C)C=Cc2c(O)c3c(c(CC=C(C)C)c2O1)O[C@]12C(=C[C@@H]4CC1C(C)(C)O[C@@]2(C/C=C(/C)C(N)=O)C4=O)C3=O [GA-amide, gambogic amide]
Kd [1]: 46.7 µM | tumor growth [2]: significantly inhibited the growth of tumors | infarct volume (infarct): significantly reduce the infarct volume | tumor growth of WDR1 deficient xenograft [3]: could not inhibit the tumor growth | toxicity in vitro (hippocampal neurons; 0.5 μM): did not display any toxicity in vitro | concentrations with protective effect on hippocampal neurons against glutamate-triggered apoptosis (hippocampal neurons; also induced neurite outgrowth in PC12 cells): 10 to 50 nM | ALB (albumin) ([4]; 1mg/kg one-time i.v.): 19.5 ± 2.4 g/L | ALP (alkaline phosphatase) ([4]; 1mg/kg one-time i.v.): 214±36 U/L | ALT (alanine aminotransferase) ([4]; 1mg/kg one-time i.v.): 26±2 U/L | AST (aspartate aminotransferase) ([4]; 1mg/kg one-time i.v.): 99±20 U/L | CA (calcium) ([4]; 1mg/kg one-time i.v.): 2.53 ± 0.12 mmol/L | CHE (cholinesterase) ([4]; 1mg/kg one-time i.v.): 7909±1092 U/L | CK (creatine kinase) ([4]; 1mg/kg one-time i.v.): 910±503 U/L | CRE (creatinine) ([4]; 1mg/kg one-time i.v.): 11.1 ± 1.1 µmol/L | Cl ([4]; 1mg/kg one-time i.v.): 112.0 ± 2.2 mmol/L | GGT (Gammagliutamyltranspherase) ([4]; 1mg/kg one-time i.v.): -1±1 U/L | GLU (glucose) ([4]; 1mg/kg one-time i.v.): 8.21 ± 3.50 mmol/L | K ([4]; 1mg/kg one-time i.v.): 5.99 ± 0.84 mmol/L | NA ([4]; 1mg/kg one-time i.v.): 147.4 ± 1.5 mmol/L | TBA (total bile acid) ([4]; 1mg/kg one-time i.v.): 8.6 ± 6.4 µmol/L | TBIL (total bilirubin) ([4]; 1mg/kg one-time i.v.): 3.3 ± 0.5 µmol/L | TCHO (total cholesterol) ([4]; 1mg/kg one-time i.v.): 4.34 ± 1.10 mmol/L | TG (triglyceride) ([4]; 1mg/kg one-time i.v.): 1.30 ± 0.29 mmol/L | TP (total protein) ([4]; 1mg/kg one-time i.v.): 54.5 ± 6.7 g/L | UREA ([4]; 1mg/kg one-time i.v.): 8.11 ± 1.58 mmol/L | ALB (albumin) ([4]; 10mg/kg one-time i.v.): 20.0 ± 0.9 g/L | ALP (alkaline phosphatase) ([4]; 10mg/kg one-time i.v.): 217±33 U/L | ALT (alanine aminotransferase) ([4]; 10mg/kg one-time i.v.): 37±12 U/L | AST (aspartate aminotransferase) ([4]; 10mg/kg one-time i.v.): 113±22 U/L | CA (calcium) ([4]; 10mg/kg one-time i.v.): 2.54 ± 0.07 mmol/L | CHE (cholinesterase) ([4]; 10mg/kg one-time i.v.): 7828±721 U/L | CK (creatine kinase) ([4]; 10mg/kg one-time i.v.): 1157±539 U/L | CRE (creatinine) ([4]; 10mg/kg one-time i.v.): 10.9 ± 0.6 µmol/L | Cl ([4]; 10mg/kg one-time i.v.): 111.5 ± 1.7 mmol/L | GGT (Gammagliutamyltranspherase) ([4]; 10mg/kg one-time i.v.): -1±1 U/L | GLU (glucose) ([4]; 10mg/kg one-time i.v.): 5.61 ± 0.60 mmol/L | K ([4]; 10mg/kg one-time i.v.): 5.97 ± 0.33 mmol/L | NA ([4]; 10mg/kg one-time i.v.): 147.7 ± 2.0 mmol/L | TBA (total bile acid) ([4]; 10mg/kg one-time i.v.): 7.9 ± 4.5 µmol/L | TBIL (total bilirubin) ([4]; 10mg/kg one-time i.v.): 3.8 ± 1.0 µmol/L | TCHO (total cholesterol) ([4]; 10mg/kg one-time i.v.): 4.75 ± 0.93 mmol/L | TG (triglyceride) ([4]; 10mg/kg one-time i.v.): 1.62 ± 0.48 mmol/L | TP (total protein) ([4]; 10mg/kg one-time i.v.): 55.5 ± 1.8 g/L | UREA ([4]; 10mg/kg one-time i.v.): 8.62 ± 1.32 mmol/L | mouse body weight versus control [5]: no significant difference in mouse body weight | survival [5]: prolonged survival times
